Assay [1] addresses T1, HCV NS5B RdRp genotype 1b (Hepatitis C virus genotype 1b, UniProt Q9WMX2).
T1 construct: The protein was expressed with an 18 amino acid C-terminal truncation to enhance the solubility; made in house; host or cells: E. coli BL21 (DE3), pET21a
The experiment in a line: Modified HCV NS5B RdRp enzyme assay (with preincubation). The class given is biochemical. A digest of the protocol:
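Seven-point IC50s were derived from SPA-based ³H-UTP incorporation after 4 h at 30 °C (Hepes pH 7.5, 2% DMSO). Compound was first mixed with 14 nM Δ18 NS5B genotype 1b enzyme. Then 0.2 nM polyA, 0.29 μM UTP and bead-bound oligo-dT12 (20 nM) were added.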

Another assay has as its system HCV replicon. Kind of assay: HCV replicon FRET assay. To be noted: Hepatitis C virus; FRET assay; read-out: EC50. The class given is cell-based. The procedure, abridged:
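Replicon cells (± Renilla luciferase reporter) incubated with titrated compound at 37 °C; NS3 protease activity read by FRET peptide cleavage (20 uM EDANS/DABCYL substrate, 340/490 nm kinetic) or luciferase.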
For orientation: A replicon is a self-replicating genome or part of one, used to study replication in cells.

[2] abbreviates: modified method (with preincubation).

The term IC50 denotes the concentration that inhibits the measured activity by half. Broadly, the EC50 is the concentration needed to bring the measured effect to its halfway point.

T1 sequence (Q9WMX2 2420-2992): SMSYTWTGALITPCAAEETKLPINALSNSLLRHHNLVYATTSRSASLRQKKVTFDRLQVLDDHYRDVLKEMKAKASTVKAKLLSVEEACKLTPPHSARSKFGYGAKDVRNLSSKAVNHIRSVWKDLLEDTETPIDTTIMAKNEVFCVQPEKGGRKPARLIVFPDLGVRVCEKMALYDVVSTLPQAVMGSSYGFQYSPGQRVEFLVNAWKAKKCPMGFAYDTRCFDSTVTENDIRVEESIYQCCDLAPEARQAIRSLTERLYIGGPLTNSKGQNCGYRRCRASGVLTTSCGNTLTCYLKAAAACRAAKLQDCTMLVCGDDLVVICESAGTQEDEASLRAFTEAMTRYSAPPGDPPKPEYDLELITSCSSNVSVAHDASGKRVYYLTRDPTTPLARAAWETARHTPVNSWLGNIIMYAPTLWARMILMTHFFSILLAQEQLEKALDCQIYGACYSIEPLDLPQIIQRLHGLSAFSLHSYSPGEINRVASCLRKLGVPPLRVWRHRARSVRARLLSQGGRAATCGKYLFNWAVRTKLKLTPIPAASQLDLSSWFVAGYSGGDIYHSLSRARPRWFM

Turning to `CCOC(=O)/C=C/c1ccc(NC(=O)C2(NC(=O)c3ccc4c(C5CCCCC5)c5n(c4c3)CCCc3cc(O)ccc3-5)CCCC2)cc1`, the IC50 in assay [1] (setting [2]) was above 1000 nM. The EC50 with HCV replicon was 10 to 1000 nM.
The like results for `O=C(O)/C=C/c1ccc(NC(=O)C2(NC(=O)c3ccc4c(C5CCCCC5)c5n(c4c3)CCCc3cc(O)ccc3-5)CCCC2)cc1` were, in that order, 20 to 1000 nM and 10 to 1000 nM.
For `O=C1Cn2c(c(C3CCCCC3)c3ccc(C(=O)NC4(C(=O)Nc5ncc(-c6ccc(C(=O)O)cc6)s5)CCCC4)cc32)-c2ccccc2N1` the same measures were 20 to 1000 nM and 10 to 1000 nM.
For `O=C1Cn2c(c(C3CCCCC3)c3ccc(C(=O)NC4(C(=O)Nc5nccs5)CCCC4)cc32)-c2ccccc2N1` the same measures were 20 to 1000 nM and 10 to 1000 nM.
Take `CN(C)CCNC(=O)C1=Cc2ccccc2-c2c(C3CCCCC3)c3ccc(C(=O)O)cc3n2C1`: the IC50 in assay [1] (setting [2]) lay within 20 to 1000 nM. Also, in the assay with HCV replicon, the EC50 was 10 to 1000 nM.
For `O=C(O)/C=C/c1ccc(NC(=O)C2(NC(=O)c3ccc4c(C5CCCCC5)c5n(c4c3)CCCc3nccnc3-5)CCCC2)cc1` the same measures were 20 to 1000 nM and below 100 nM.
For `CN(C)CCNC(=O)C1=Cc2ccccc2-c2c(C3CCCCC3)c3ccc(C(=O)NC4(C(=O)Nc5ccc(/C=C/C(=O)O)cc5)CCCC4)cc3n2C1` the same measures were 20 to 1000 nM and 10 to 1000 nM.
`CCOC(=O)c1cc2cc(NC(=O)C3(NC(=O)c4ccc5c(C6CCCCC6)c6n(c5c4)CC(=O)Nc4ccccc4-6)CCCC3)ccc2n1C`: in assay [1] (setting [2]), the IC50 is 20 to 1000 nM. Further, the EC50 with HCV replicon was in the range of 10 to 1000 nM.
For `Cn1c(C(=O)O)cc2cc(NC(=O)C3(NC(=O)c4ccc5c(C6CCCCC6)c6n(c5c4)CCNc4ccccc4-6)CCCC3)ccc21` the same measures were 20 to 1000 nM and 10 to 1000 nM.
With `O=C(O)c1ccc2c(c1)C1CCN(C(=O)N3CCOCC3)c3ccccc3C1=C2C1CCCCC1` (centres unmarked), the IC50 in assay [1] (setting [2]) was above 1000 nM. For the same compound, the EC50 with HCV replicon fell in the range of 1000 to 10000 nM.
In assay [1] (setting [2]), `CN(C)C(=O)NC(=O)c1ccc2c(C3CCCCC3)c3n(c2c1)CC(C(=O)N1CCOCC1)=Cc1ccccc1-3` registered an IC50 of 20 to 1000 nM. Besides, the EC50 in the assay with HCV replicon was in the range of 1000 to 10000 nM.
The like results for `CN(C)S(=O)(=O)NC(=O)c1ccc2c(c1)N1C(O)c3cc(OCc4ccccc4)ccc3C1C2` (centres unmarked) were, in that order, 20 to 1000 nM and 10 to 1000 nM.
The like results for `COC(=O)c1ccc2c(C3CCCCC3)c3n(c2c1)CC(C(=O)N1CCOCC1)=C(C)c1ccccc1-3` were, in that order, above 1000 nM and 1000 to 10000 nM.
The like results for `CC1=C(C(=O)N2CCOCC2)Cn2c(c(C3CCCCC3)c3ccc(C(=O)O)cc32)-c2ccccc21` were, in that order, 20 to 1000 nM and 10 to 1000 nM.
As to `COC(=O)c1ccc2c(C3CCCCC3)c3n(c2c1)C(O)c1cc(Cl)ccc1-3` (centres unmarked), the IC50 in assay [1] (setting [2]) is above 1000 nM. The EC50 with HCV replicon is 10 to 1000 nM.
Take `COc1cc(CNC(=O)c2ccc3c(C4CCCCC4)c4n(c3c2)CC(C(=O)N2CCOCC2)=Cc2ccccc2-4)ccc1O`: in assay [1] (setting [2]), the IC50 was in the range of 20 to 1000 nM. Also, the EC50 with HCV replicon was in the range of 10 to 1000 nM.
The like results for `COC(=O)C1=Cc2cc(Cl)ccc2-c2c(C3CCCCC3)c3ccc(C(=O)OC)cc3n2C1` were, in that order, above 1000 nM and 1000 to 10000 nM.
Compound `CCN(CC)C1CCN(C(=O)C2=Cc3ccccc3-c3c(C4CCCCC4)c4ccc(C(=O)NS(=O)(=O)N(C)C)cc4n3C2)C1` (centres unmarked) displayed an IC50 in assay [1] (setting [2]) of 20 to 1000 nM. The 50% effective concentration (EC50) with HCV replicon fell in the range of 10 to 1000 nM.
The like results for `CN(C)S(=O)(=O)NC(=O)c1ccc2c(C3CCCCC3)c3n(c2c1)CC(C(=O)N1CCCOCC1)=Cc1ccccc1-3` were, in that order, 20 to 1000 nM and 10 to 1000 nM.
For `O=C(O)c1ccc2c(C3CCCCC3)c3n(c2c1)CCN(C(=O)Nc1ccccc1)c1ccccc1-3` the same measures were 20 to 1000 nM and 1000 to 10000 nM.
For `O=C(O)c1ccc2c(C3CCCCC3)c3n(c2c1)CCN(C(=O)NC1CCCC1)c1ccccc1-3` the same measures were 20 to 1000 nM and 10 to 1000 nM.
For the compound `CC(C)N(C)C(=O)C1=Cc2ccccc2-c2c(C3CCCCC3)c3ccc(C(=O)NS(=O)(=O)N(C)C)cc3n2C1`, the IC50 in assay [1] (setting [2]) fell in the range of 20 to 1000 nM. Besides, the EC50 in the assay on HCV replicon fell in the range of 10 to 1000 nM.
The like results for `CN(CC(O)CO)C(=O)C1=Cc2ccccc2-c2c(C3CCCCC3)c3ccc(C(=O)NS(=O)(=O)N(C)C)cc3n2C1` (centres unmarked) were, in that order, 20 to 1000 nM and 10 to 1000 nM.
The like results for `CC(C)N(C(=O)C1=Cc2ccccc2-c2c(C3CCCCC3)c3ccc(C(=O)NS(=O)(=O)N(C)C)cc3n2C1)C(C)C` were, in that order, 20 to 1000 nM and 10 to 1000 nM.
For `CCN(CC)C(=O)C1=Cc2ccccc2-c2c(C3CCCCC3)c3ccc(C(=O)NS(=O)(=O)N(C)C)cc3n2C1` the same measures were 20 to 1000 nM and 10 to 1000 nM.
Regarding `COC(=O)C1=Cc2cc(OCc3ccccc3)ccc2-c2c(C3CCCCC3)c3ccc(C(=O)NS(=O)(=O)N(C)C)cc3n2C1`, in assay [1] (setting [2]), the IC50 is 20 to 1000 nM. The EC50 in the assay with HCV replicon lay in the range of 10 to 1000 nM.
The like results for `CC1CN(C(=O)C2=Cc3ccccc3-c3c(C4CCCCC4)c4ccc(C(=O)NS(=O)(=O)N(C)C)cc4n3C2)CC(C)N1` (centres unmarked) were, in that order, 20 to 1000 nM and 10 to 1000 nM.
For `CN(CCO)C(=O)C1=Cc2ccccc2-c2c(C3CCCCC3)c3ccc(C(=O)NS(=O)(=O)N(C)C)cc3n2C1` the same measures were 20 to 1000 nM and 10 to 1000 nM.
For `CN(C)C(=O)N1CCn2c(c(C3CCCCC3)c3ccc(C(=O)NS(=O)(=O)N(C)C)cc32)-c2ccccc21` the same measures were 20 to 1000 nM and 10 to 1000 nM.
Take `CC(=O)N1CCn2c(c(C3CCCCC3)c3ccc(C(=O)NS(=O)(=O)N(C)C)cc32)-c2ccccc21`: the IC50 in assay [1] (setting [2]) was 20 to 1000 nM. In the assay on HCV replicon, the EC50 fell in the range of 10 to 1000 nM.
For `CCOC(=O)N1CCn2c(c(C3CCCCC3)c3ccc(C(=O)NS(=O)(=O)C4CC4)cc32)-c2ccccc21` the same measures were 20 to 1000 nM and 10 to 1000 nM.
For `O=C(NS(=O)(=O)C1CC1)c1ccc2c(C3CCCCC3)c3n(c2c1)CCNc1ccccc1-3` the same measures were 20 to 1000 nM and 10 to 1000 nM.
Take `CS(=O)(=O)NC(=O)c1ccc2c(C3CCCCC3)c3n(c2c1)CCNc1ccccc1-3`: the IC50 in assay [1] (setting [2]) lay in the range of 20 to 1000 nM. The EC50 in the assay on HCV replicon is 10 to 1000 nM.
For `CC(C)(C)OC(=O)N1CCn2c(c(C3CCCCC3)c3ccc(C(=O)NS(C)(=O)=O)cc32)-c2ccccc21` the same measures were 20 to 1000 nM and 10 to 1000 nM.
`COc1ccc2c(c1)CC(F)(C(=O)O)Cn1c-2c(C2CCCCC2)c2ccc(C(=O)NS(=O)(=O)N(C)C)cc21` (centres unmarked) showed an IC50 in assay [1] (preincubation protocol) of 10 to 1000 nM. The half-maximal effective concentration (EC50) in the assay on HCV replicon lay in the range of 1000 to 10000 nM.
`COc1ccc2c(c1)CC(F)(C(=O)N1C[C@@H](C)O[C@@H](C)C1)Cn1c-2c(C2CCCCC2)c2ccc(C(=O)NS(=O)(=O)N(C)C)cc21` (some centres unmarked) had an IC50 in assay [1] (preincubation protocol) of 10 to 1000 nM. The EC50 with HCV replicon lay within 50 to 1000 nM.
The like results for `CN(C)S(=O)(=O)NC(=O)c1ccc2c(C3CCCCC3)c3n(c2c1)CCCN(C(=O)OC(C)(C)C)c1ccccc1-3` were, in that order, 10 to 1000 nM and 50 to 1000 nM.
The like results for `CN(C)S(=O)(=O)NC(=O)c1ccc2c(C3CCCCC3)c3n(c2c1)CCCNc1ccccc1-3` were, in that order, 10 to 1000 nM and 50 to 1000 nM.
The like results for `COc1ccc2c(c1O)C(O)n1c-2c(C2CCCCC2)c2ccc(C(=O)NS(=O)(=O)N(C)C)cc21` (centres unmarked) were, in that order, 1000 to 10000 nM and above 100 nM.
Compound `COc1cc2c(cn1)-c1c(C3CCCCC3)c3ccc(C(=O)NS(=O)(=O)N(C)C)cc3n1CC(C(=O)N1C[C@@H](C)O[C@@H](C)C1)=C2` displayed an IC50 in assay [1] (preincubation protocol) of 1000 to 10000 nM. Besides, the EC50 in the assay with HCV replicon was above 1000 nM.

Values taken from patent US7348425B2, “Inhibitors of HCV replication” (Bristol-Myers Squibb Company, priority 2004, dated 2008).
